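Test compounds were applied to cells in 96-well plates for 48 hours at 5 doses. At the GI50, growth is halved. TGI marks complete inhibition of growth.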
Experiments:
Assay in all cases: inhibition of tumour cell growth, NCI panel, 48 h
[1] = tested on: IGROV1 ovarian
[2] = tested on: CCRF-CEM leukemia
[3] = tested on: SK-MEL-5 melanoma
[4] = tested on: 786-0 renal
[5] = tested on: CAKI-1 renal
[6] = tested on: HOP-92 NSCLC
[7] = tested on: MCF7 breast
[8] = tested on: M14 melanoma
[9] = tested on: HS 578T breast
[10] = tested on: NCI/ADR-RES ovarian

Compound	TGI [1]	TGI [2]	TGI [3]	TGI [4]	TGI [5]	TGI [6]	TGI [7]	TGI [8]	TGI [9]	TGI [10]	GI50 [1]	GI50 [2]	GI50 [3]	GI50 [5]	GI50 [6]	GI50 [7]	GI50 [8]	GI50 [9]	GI50 [10]
CN(C)CCNCCCNc1c2ccccc2nc2cccc([N+](=O)[O-])c12	0.173 µM	< 0.0207 µM	0.0507 µM	0.106 µM	0.331 µM	0.0346 µM	< 0.0268 µM	0.0654 µM	0.384 µM										
Oc1ccccc1/C=N/N1C(=S)N(C23CC4CC(CC(C4)C2)C3)C(=Nc2ccccc2)C1=Nc1ccccc1	> 100 µM		> 100 µM	> 100 µM	> 100 µM	> 100 µM		> 100 µM	> 100 µM	> 100 µM									
C=C1[C@@H]2CCC3[C@]4(C)C(CC[C@@]5(C)C(=O)O[C@H](O)[C@@H]45)[C@H](O)[C@]3(C2)[C@H]1OC1OC(CO)C(O)C(O)C1O (some centres undefined)	> 50 µM		> 50 µM	> 50 µM			> 50 µM	> 50 µM	> 50 µM	> 50 µM									
c1cncc(CSc2nc3ccccc3nc2-c2cccs2)c1		> 100 µM	> 100 µM	> 100 µM				> 100 µM											
C[As+](C)(c1ccc(Br)c([N+](=O)[O-])c1)c1ccc(Br)c([N+](=O)[O-])c1.O=[N+]([O-])O	> 100 µM		22 µM	> 100 µM	> 100 µM	> 100 µM	> 100 µM	> 100 µM	> 100 µM	> 100 µM									
CCOC(=O)c1c(SCc2cc(=O)[nH]c(=O)[nH]2)n(-c2ccccc2)c(=S)n(-c2ccccc2)c1=O	> 100 µM	> 100 µM	> 100 µM	> 100 µM	> 100 µM		> 100 µM	> 100 µM		> 100 µM									
NC(=O)C1CCN(Cc2c(Cl)c(Cl)c(CN3CCC(C(N)=O)CC3)c(Cl)c2Cl)CC1		> 100 µM	> 100 µM	> 100 µM	> 100 µM	> 100 µM	> 100 µM	> 100 µM	> 100 µM	> 100 µM									
C=CN(C=C)C(=O)Cn1cc(-c2ccccc2)nn1	> 100 µM	> 100 µM	> 100 µM	> 100 µM	> 100 µM	> 100 µM	> 100 µM	> 100 µM		> 100 µM									
CCn1ncc2c(=O)n3ncn(-c4ccc(Br)cc4)c3nc21	> 100 µM	> 100 µM	> 100 µM	> 100 µM			> 100 µM	> 100 µM	> 100 µM	> 100 µM									
O=C([C@H](O)[C@@H](O)c1cccc(Cl)c1)C12CC3CC(CC(C3)C1)C2	2.68 µM	> 100 µM	14.8 µM	3.3 µM	3.98 µM		2.77 µM	7.16 µM	6.48 µM	5.52 µM									
N#C/C(C(=O)NCc1ccccc1)=C(/N)N1CCCC1	> 100 µM	> 100 µM	> 100 µM	> 100 µM	> 100 µM	> 100 µM		> 100 µM	> 100 µM	> 100 µM									
c1ccc2c(c1)cc1ccc3cccc4ccc2c1c34	> 100 µM	> 100 µM	> 100 µM	> 100 µM	> 100 µM	> 100 µM		> 100 µM	> 100 µM	> 100 µM									
N#Cc1c(-c2ccc([N+](=O)[O-])cc2)c(C#N)c(=O)n(NS(=O)(=O)c2ccccc2)c1O	> 100 µM	> 100 µM	> 100 µM	> 100 µM	> 100 µM	> 100 µM	> 100 µM	> 100 µM		> 100 µM									
C/C(=C\CSCC(N)C(=O)O)CC/C=C(\C)CNc1ccccc1 (centres undefined)	> 100 µM		> 100 µM	> 100 µM	> 100 µM		> 100 µM	> 100 µM	> 100 µM	> 100 µM									
COc1ccc([C@]23CCC4(OCC(C)(C)CO4)[C@H]4CON(O[C@H](O[C@@H]5CCCCC5C(C)(C)c5ccccc5)C2)[C@@H]43)cc1OC (some centres undefined)	> 100 µM	> 100 µM	45.4 µM	> 100 µM	39 µM	> 100 µM	> 100 µM	> 100 µM		> 100 µM									
CCN(CC)CCCCNc1c2ccc(Cl)cc2nc2ccc(OC)cc12	8.61 µM	5.3 µM	2.9 µM		3.76 µM	1.87 µM	1.69 µM	2.58 µM	4.76 µM	3.95 µM	0.777 µM	0.524 µM	1.46 µM	1.14 µM	0.271 µM	0.294 µM	1.15 µM	1.83 µM	0.645 µM
CCCCNC(=O)Cn1c2ccc(Br)cc2c2nc3ccccc3nc21	> 100 µM	> 100 µM	> 100 µM	> 100 µM	> 100 µM	> 100 µM		> 100 µM	> 100 µM	> 100 µM									
COc1cc2c(c(OC)c1)[C@H](C)N(Cc1ccccc1)C(C)C2 (some centres undefined)	> 100 µM	> 100 µM	90.3 µM	> 100 µM	> 100 µM		> 100 µM	> 100 µM	> 100 µM										
O=c1c2c3c(sc2nc2n1N=C(c1ccc(Br)cc1)CS2)CCCC3	> 100 µM	> 100 µM		> 100 µM	> 100 µM	> 100 µM	> 100 µM	> 100 µM		> 100 µM									
CCC1(CC)C(=O)N(C(=O)c2cc(OC)c(OC)c(OC)c2)N(C(=O)c2cc(OC)c(OC)c(OC)c2)C1=O	> 50 µM	> 50 µM	> 50 µM	> 50 µM	> 50 µM		> 50 µM	> 50 µM	> 50 µM	> 50 µM									
O=C1c2cc3c(cc2-c2c1c1ccc(Cl)cc1c(=O)n2CCCn1ccnc1)OCO3	> 100 µM	10.5 µM			> 100 µM	0.491 µM		11.9 µM	> 100 µM	15.2 µM	0.0656 µM	< 0.01 µM		< 0.01 µM	0.0229 µM		< 0.01 µM	1.54 µM	< 0.01 µM
O=c1c2ccc(Cl)cc2oc2c(CNc3ccc(S(=O)(=O)Nc4ncccn4)cc3)cccc12	> 100 µM	> 100 µM	> 100 µM	> 100 µM	> 100 µM	> 100 µM	> 100 µM	> 100 µM		> 100 µM									

From PubChem BioAssay (NCI)
